Values of other authors as cited in US20170014380A1, “Vildagliptin Formulation Process Under Inert Gas Atmosphere” (Sanovell IIac Sanayi Ve Ticaret Anonim Sirketi, priority 2014, published 2017).

N#C[C@@H]1CCCN1C(=O)CN[C@@]12C[C@@H]3C[C@@H](CC(O)(C3)C1)C2 [Vildagliptin, (S)-{[(3-hydroxyadamantan-1-yl)amino]acetyl}pyrrolidine-2-carbonitril]
solubility in organic polar solvents (in organic polar solvents): soluble | solubility in water (in water): soluble
